The values below come from PMC7046733, “Plantaricin NC8 αβ exerts potent antimicrobial activity against Staphylococcus spp. and enhances the effects of antibiotics” (Scientific Reports, 2020).

Read-outs that look alike come from different tables or passages of the source. Residues, ends and D or L forms follow the SMILES beside them.

One data set has as its system human erythrocytes. Put plainly: Haemolysis. It is filed as cell-based. To be noted: isolated human erythrocytes, 1 h, 37 °C, n=3. On the procedure: The haemolytic activity of the peptides was investigated by collecting blood from healthy volunteers in heparinized vacutainers. Briefly, the blood was centrifuged at 600 × g for 5 min and the erythrocyte pellet was washed three times in PBS. The cells were then suspended in PBS and added to 96-well plates (15% erythrocyte suspension/well), containing the peptides with two-fold serial dilution. The plates were incubated for 1 h at 37 °C followed by centrifugation for 5 min at 900 × g and measurement of the supernatants at 540 nm. Haemolytic activity (%) was calculated by subtracting the negative control from all values and normalization against the positive control (0.5% Triton X-100), that was set to 100%. All experiments, each in duplicate, were repeated three times.

For the next data set, the system named is S. epidermidis 154. Put plainly: Broth microdilution MIC/MBC. The format is cell-based. On the procedure: (§1) The broth microdilution method was used to determine minimal inhibitory concentration (MIC) and minimal bactericidal concentration (MBC). Briefly, two-fold serial dilutions of the peptides were used and the final concentrations ranged between 0.097–50 µM. The final concentrations of the antibiotics vancomycin and teicoplanin ranged between 0.097–50 µg/ml, while rifampicin ranged between 0.0019–1 µg/ml and gentamicin 0.0097–5 µg/ml. The inhibitory and bactericidal effects of peptides together with antibiotics were studied by using the same concentration series of antibiotics with constant, sub-MIC concentrations, of the peptides in all the wells (see figure legends). The plates were then incubated at 37 °C for 20 h. […] MBC was determined as the lowest concentration where no growth of bacterial colonies (10 µl) was observed on blood-agar plates. All experiments were repeated at least three times. The combined effect of teicoplanin and PLNC8 αβ against S. epidermidis ATCC 12228 was evaluated by the microdilution checkerboard method. Briefly, two-fold serial dilutions of the antibiotics and PLNC8 αβ were prepared together in microtiter plates, either alone or in combination. The MIC values were determined visually and spectroscopically, and the fractional inhibitory concentration (ΣFIC) was calculated by the equation (MIC of PLNC8 αβ in combination/MIC of PLNC8 αβ alone) + (MIC of antibiotic in combination/MIC of antibiotic alone). Synergy was defined as ΣFIC ≤ 0.5, additive when 0.5 <ΣFIC ≤1, indifferent when 1 <ΣFIC <2 and antagonistic when ΣFIC ≥ 2.
On the technique in general: Dilution methods test growth across graded concentrations, often in twofold steps.

For data set [1], the system named is S. epidermidis ATCC 12228. The experiment in a line: microbe, parasite or virus in culture. On the procedure:
as §1

Data set [2] concerns S. epidermidis 126 (hGISE). Put plainly: Broth microdilution MIC/MBC. It is filed as cell-based. On the procedure: as §1, with “legends).” for “legends). The plates were then incubated at 37 °C for 20 h.”
For data set [3], the system named is S. epidermidis 157 (hGISE). Put plainly: Broth microdilution MIC/MBC. The format is cell-based. On the procedure:
as §1, with “legends).” for “legends). The plates were then incubated at 37 °C for 20 h.”

The subject of data set [4] is S. aureus CCUG 35601 (MRSA). The experiment in a line: Broth microdilution MIC/MBC. It is filed as cell-based. On the procedure:
as §1, with “legends).” for “legends). The plates were then incubated at 37 °C for 20 h.”

[5] abbreviates: Staphylococcus epidermidis, 154, 20 h, antibiotic alone, 20 h, read-out: MBC.
Setting [6] is: Staphylococcus epidermidis, ATCC12228, 20 h.
The mark [7] stands for this setting: S. epidermidis 126, antibiotic alone, after 24 h.
Where [8] appears, read: S. epidermidis 157, antibiotic alone, after 24 h.
Setting [9] is: MRSA, antibiotic alone, after 24 h.
Setting [10] is: antibiotic alone, broth microdilution, 37 °C, 20 h.
The mark [11] stands for this setting: Staphylococcus epidermidis, 154, 20 h.
Setting [12] is: Staphylococcus epidermidis, 24 h.

In the case of `CC(C)C[C@H](NC(=O)[C@H](Cc1ccc(O)cc1)NC(=O)[C@H](Cc1ccc(O)cc1)NC(=O)CNC(=O)[C@H](Cc1c[nH]c2ccccc12)NC(=O)[C@H](CO)NC(=O)[C@H](CO)NC(=O)[C@H](Cc1c[nH]c2ccccc12)NC(=O)[C@H](CC(C)C)NC(=O)[C@H](CCCCN)NC(=O)[C@@H](NC(=O)[C@@H](NC(=O)[C@H](CC(C)C)NC(=O)[C@@H](N)CC(=O)O)[C@@H](C)O)[C@@H](C)O)C(=O)NCC(=O)O` [α1-15] (H-DLTTKLWSSWGYYLG-OH), the “cytotoxic at relevant concentrations (<50 µM), determined by haemolytic activity” value in the data set with human erythrocytes is “nor the truncated α1–22, α1–15, β7–34, β7–20 and β1–20 were cytotoxic”.
On the same count and under the same terms, as for `CC[C@H](C)[C@H](NC(=O)CNC(=O)[C@H](CC(C)C)NC(=O)[C@@H](NC(=O)[C@@H](N)Cc1ccc(O)cc1)[C@@H](C)O)C(=O)N[C@@H](CCCCN)C(=O)N[C@H](C(=O)N[C@@H](CC(C)C)C(=O)N[C@@H](Cc1c[nH]c2ccccc12)C(=O)N[C@@H](CO)C(=O)N[C@@H](C)C(=O)N[C@@H](Cc1ccc(O)cc1)C(=O)N[C@@H](CCCCN)C(=O)N[C@@H](Cc1c[nH]cn1)C(=O)N[C@@H](CCCNC(=N)N)C(=O)N[C@@H](CCCCN)C(=O)N[C@H](C(=O)N[C@H](C(=O)N[C@@H](CCC(=O)O)C(=O)N[C@@H](CCCCN)C(=O)N[C@@H](CO)C(=O)N[C@@H](Cc1ccccc1)C(=O)N[C@@H](CC(N)=O)C(=O)N[C@@H](CCCCN)C(=O)NCC(=O)N[C@@H](Cc1ccccc1)C(=O)N[C@@H](Cc1ccc(O)cc1)C(=O)N[C@@H](Cc1c[nH]cn1)C(=O)O)[C@@H](C)CC)[C@@H](C)O)[C@@H](C)CC` [β7-34] (H-YTLGIKILWSAYKHRKTIEKSFNKGFYH-OH), the entry is “nor the truncated α1–22, α1–15, β7–34, β7–20 and β1–20 were cytotoxic”; as for `CC(C)C[C@H](NC(=O)[C@H](CC(N)=O)NC(=O)[C@H](Cc1c[nH]c2ccccc12)NC(=O)[C@H](CCCNC(=N)N)NC(=O)[C@H](C)NC(=O)[C@H](CCCCN)NC(=O)[C@H](CCCCN)NC(=O)CNC(=O)[C@H](CC(C)C)NC(=O)[C@H](Cc1ccc(O)cc1)NC(=O)[C@H](Cc1ccc(O)cc1)NC(=O)CNC(=O)[C@H](Cc1c[nH]c2ccccc12)NC(=O)[C@H](CO)NC(=O)[C@H](CO)NC(=O)[C@H](Cc1c[nH]c2ccccc12)NC(=O)[C@H](CC(C)C)NC(=O)[C@H](CCCCN)NC(=O)[C@@H](NC(=O)[C@@H](NC(=O)[C@H](CC(C)C)NC(=O)[C@@H](N)CC(=O)O)[C@@H](C)O)[C@@H](C)O)C(=O)O` [α1-22] (H-DLTTKLWSSWGYYLGKKARWNL-OH), “nor the truncated α1–22, α1–15, β7–34, β7–20 and β1–20 were cytotoxic”; as for `CC[C@H](C)[C@H](NC(=O)CNC(=O)[C@H](CC(C)C)NC(=O)[C@@H](NC(=O)[C@H](Cc1ccc(O)cc1)NC(=O)[C@@H](NC(=O)[C@H](CO)NC(=O)[C@@H](NC(=O)[C@@H]1CCCN1C(=O)[C@@H](NC(=O)[C@@H](N)CO)C(C)C)[C@@H](C)O)C(C)C)[C@@H](C)O)C(=O)N[C@@H](CCCCN)C(=O)N[C@H](C(=O)N[C@@H](CC(C)C)C(=O)N[C@@H](Cc1c[nH]c2ccccc12)C(=O)N[C@@H](CO)C(=O)N[C@@H](C)C(=O)N[C@@H](Cc1ccc(O)cc1)C(=O)N[C@@H](CCCCN)C(=O)N[C@@H](Cc1c[nH]cn1)C(=O)O)[C@@H](C)CC` [β1-20] (H-SVPTSVYTLGIKILWSAYKH-OH), “nor the truncated α1–22, α1–15, β7–34, β7–20 and β1–20 were cytotoxic”.
As to `CO[C@H]1/C=C/O[C@@]2(C)Oc3c(C)c(O)c4c(O)c(c(/C=N/N5CCN(C)CC5)c(O)c4c3C2=O)NC(=O)/C(C)=C\C=C\[C@H](C)[C@H](O)[C@@H](C)[C@@H](O)[C@@H](C)[C@H](OC(C)=O)[C@@H]1C` [Rifampicin, rifampicin], the MBC amounted to 0.05 µg/mL with S. epidermidis 154 (setting [5]); 0.063 µg/mL with S. epidermidis 154 (antibiotic alone, 20 h); 0.063 µg/mL in data set [1] (setting [6]). For the same compound, the MIC in data set [1] (setting [6]) came out at 0.063 µg/mL.
On to `CNC(C)C1CCC(N)C(OC2C(N)CC(N)C(OC3OCC(C)(O)C(NC)C3O)C2O)O1` (centres unmarked) [Gentamicin, gentamicin], for which the results for the MBC (in the data set with S. epidermidis 154 (setting [5]); in data set [1] (setting [6])) were over 100 µg/mL and 0.31 µg/mL, respectively. Moreover, the MIC is over 100 µg/mL in the data set on S. epidermidis 154 (Staphylococcus epidermidis, 154, 20 h, antibiotic alone, 20 h, read-out: MIC) and 0.31 µg/mL in data set [1] (setting [6]).
Regarding `CC[C@H](C)[C@H](NC(=O)CNC(=O)[C@H](CC(C)C)NC(=O)[C@@H](NC(=O)[C@@H](N)Cc1ccc(O)cc1)[C@@H](C)O)C(=O)N[C@@H](CCCCN)C(=O)N[C@H](C(=O)N[C@@H](CC(C)C)C(=O)N[C@@H](Cc1c[nH]c2ccccc12)C(=O)N[C@@H](CO)C(=O)N[C@@H](C)C(=O)N[C@@H](Cc1ccc(O)cc1)C(=O)N[C@@H](CCCCN)C(=O)N[C@@H](Cc1c[nH]cn1)C(=O)O)[C@@H](C)CC` [β7-20] (H-YTLGIKILWSAYKH-OH), the “cytotoxic at relevant concentrations (<50 µM), determined by haemolytic activity” value in the data set with human erythrocytes was “nor the truncated α1–22, α1–15, β7–34, β7–20 and β1–20 were cytotoxic”.
On to teicoplanin, for which the MBC came out at 1.5 µg/mL with S. epidermidis 154 (antibiotic alone, 20 h); 6.25 µg/mL in data set [2] (setting [7]); 25 µg/mL in data set [3] (setting [8]); 3.1 µg/mL in data set [4] (setting [9]); 1.5 µg/mL in data set [1] (setting [10]). The MIC stood at 1.5 µg/mL in the data set on S. epidermidis 154 (antibiotic alone, 20 h); 3.1 µg/mL in data set [2] (setting [7]); 12.5 µg/mL in data set [3] (setting [8]); 0.78 µg/mL in data set [4] (setting [9]); 1.5 µg/mL in data set [1] (setting [10]).
For the compound `CN[C@H](CC(C)C)C(=O)N[C@H]1C(=O)N[C@@H](CC(N)=O)C(=O)N[C@H]2C(=O)N[C@H]3C(=O)N[C@H](C(=O)N[C@H](C(=O)O)c4cc(O)cc(O)c4-c4cc3ccc4O)[C@H](O)c3ccc(c(Cl)c3)Oc3cc2cc(c3O[C@@H]2O[C@H](CO)[C@@H](O)[C@H](O)[C@H]2O[C@H]2C[C@](C)(N)[C@H](O)[C@H](C)O2)Oc2ccc(cc2Cl)[C@H]1O` [Vancomycin, vancomycin], the MBC in the data set with S. epidermidis 154 (setting [11]) turned out to be 3.1 µg/mL; in data set [2] (setting [12]) it was 3.1 µg/mL; in data set [3] (setting [12]) it was 6.25 µg/mL; in data set [4] (Staphylococcus aureus, 24 h), 3.1 µg/mL; in data set [1] (setting [6]) it was 3.1 µg/mL. The MIC in the data set on S. epidermidis 154 (setting [11]) was 1.5 µg/mL; in data set [2] (setting [12]) it was 3.1 µg/mL; in data set [3] (setting [12]), 6.25 µg/mL; in data set [1] (setting [6]), 1.5 µg/mL.
